Source: article PMC3136713, “Health-Beneficial Phenolic Aldehyde in Antigonon leptopus Tea” (Evidence-based Complementary and Alternative Medicine : eCAM, 2010)

Experiments:
COX-2 [1] = molecular target: T1, COX-2 (Homo sapiens, UniProt P35354); assay: O2 uptake cyclooxygenase assay, single concentration; format: biochemical; conditions: read-out: % inhibition at 100 μg/mL
T1 construct: gene PTGS2
T1 sequence (P35354 18-604): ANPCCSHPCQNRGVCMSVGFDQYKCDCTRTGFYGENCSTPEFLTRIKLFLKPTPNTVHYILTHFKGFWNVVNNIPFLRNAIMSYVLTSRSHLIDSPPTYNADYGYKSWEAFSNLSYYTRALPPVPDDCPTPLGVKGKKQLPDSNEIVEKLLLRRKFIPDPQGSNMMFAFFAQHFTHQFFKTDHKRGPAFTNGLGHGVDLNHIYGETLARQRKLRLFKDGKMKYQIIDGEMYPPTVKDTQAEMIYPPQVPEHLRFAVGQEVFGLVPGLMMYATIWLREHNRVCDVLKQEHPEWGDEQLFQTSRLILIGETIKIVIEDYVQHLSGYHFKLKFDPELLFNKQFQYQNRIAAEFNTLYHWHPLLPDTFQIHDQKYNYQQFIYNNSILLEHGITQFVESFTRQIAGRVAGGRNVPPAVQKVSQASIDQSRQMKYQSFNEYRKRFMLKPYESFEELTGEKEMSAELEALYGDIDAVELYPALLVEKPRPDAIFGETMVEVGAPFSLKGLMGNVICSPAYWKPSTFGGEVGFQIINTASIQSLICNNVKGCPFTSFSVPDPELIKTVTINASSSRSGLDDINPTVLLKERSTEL

COX-1 [2] = molecular target: T2, COX-1 (Ovis aries, UniProt P05979); assay: as above; format: biochemical; conditions: for inhibition at 100 µg/mL: read-out: % inhibition at 100 μg/mL
T2 construct: gene PTGS1
T2 sequence (P05979 25-600): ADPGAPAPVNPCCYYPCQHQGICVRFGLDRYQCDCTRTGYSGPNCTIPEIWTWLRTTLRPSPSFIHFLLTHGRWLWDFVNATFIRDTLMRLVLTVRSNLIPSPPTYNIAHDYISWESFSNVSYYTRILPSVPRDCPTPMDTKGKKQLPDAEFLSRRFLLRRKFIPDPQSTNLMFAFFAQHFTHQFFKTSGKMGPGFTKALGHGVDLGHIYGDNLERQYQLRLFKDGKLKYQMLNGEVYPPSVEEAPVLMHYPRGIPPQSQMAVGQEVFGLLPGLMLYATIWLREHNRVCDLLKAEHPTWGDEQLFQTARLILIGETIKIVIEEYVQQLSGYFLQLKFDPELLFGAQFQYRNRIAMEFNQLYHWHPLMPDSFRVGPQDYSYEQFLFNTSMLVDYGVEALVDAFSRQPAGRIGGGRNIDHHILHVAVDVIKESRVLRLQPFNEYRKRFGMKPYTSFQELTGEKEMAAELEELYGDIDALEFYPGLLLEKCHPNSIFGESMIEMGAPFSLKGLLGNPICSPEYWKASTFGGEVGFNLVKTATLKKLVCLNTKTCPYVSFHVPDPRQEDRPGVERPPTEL

COX-2 [3] = molecular target: T1, COX-2; assay: biochemical; conditions: read-out: % inhibition at 32 nM
COX-1 [4] = molecular target: T2, COX-1; assay: O2 uptake cyclooxygenase assay, ram seminal vesicle COX-1; […] inhibition at […]; format: biochemical

| SMILES | inhibition at 100 µg/mL (COX-1 [2]) [%] | other results |
| --- | --- | --- |
| O=Cc1cc(O)ccc1O [compound 7, 2,5-dihydroxy benzaldehyde] | – | inhibition at 100 µg/mL (COX-2 [1]): 61% |
| COc1ccccc1C=O [compound 14, Compound 14] | 83 | – |
| O=Cc1cccc(O)c1O [compound 5, 2,3-dihydroxy benzaldehyde] | 68 | – |
| CS(=O)(=O)c1ccc(C2=C(c3ccccc3)C(=O)OC2)cc1 [Vioxx] | – | inhibition at 0.032 µM (COX-2 [3]): 91% |
| COc1cc(C=O)cc(OC)c1 [compound 21, Compound 21] | 85 | – |
| O=Cc1cc(O)cc(O)c1 [compound 9, 3,5-dihydroxy benzaldehyde] | 82 | – |
| O=Cc1c(O)cc(O)cc1O [compound 11, 2,4,6-trihydroxy benzaldehyde] | – | % inhibition at 100 μg/mL (COX-1 [2]): 86 |
| CC(=O)Oc1ccccc1C(=O)O [Aspirin] | – | % inhibition at 60 μM (COX-1 [4]): 69 |
